From patent publication EP4772530A1, “PEPTIDE TARGETING SOMATOSTATIN RECEPTOR, DRUG CONJUGATE AND USE THEREOF” (Mainline Biosciences (Shanghai) Co., Ltd., priority 2023, dated 2025) come the findings set out here.

The test system of this test is HL-60. The test can be described thus: Cell killing in HL-60 by CCK-8. The format is cell-based. To be noted: HL-60, 48 h. The protocol:
• a) Cell line: HL-60 • b) Procedure • (1) Normally cultured HL-60 cells in the logarithmic growth phase were centrifuged at 800 rpm for 5 min to discard the supernatant. Approximately 3 mL of normal medium was added to resuspend the cell pellet by gently pipetting up and down. The cells were then counted using a cell counter and inoculated onto a 96-well plate. • (2) Sample solutions with different concentration gradients were prepared. Approximately 10 µL of each solution was added to the 96-well plate, with 3 to 6 replicate wells for each concentration, and incubated in a 5% CO2 incubator at 37°C for 48 h. • (3) CCK-8 was equilibrated to room temperature before use, and 10 µL of CCK-8 solution was added to each well. • (4) The plate was incubated in the incubator for 0.5-4 h in the dark, with the incubation time depending on experimental conditions such as cell type and density. • (5) The absorbance was measured at 450 nm using a microplate reader. • c) Data analysis Cell viability = [(As−Ab)/(Ac−Ab)] × 100% [formula] Inhibition% = [(Ac−As)/(Ac−Ab)] × 100% [formula] • As: absorbance of sample well (containing cells + medium + CCK-8 solution + drug solution); • Ac: absorbance of control well (containing cells + medium + CCK-8 solution); • Ab: absorbance of blank well (containing medium + CCK-8 solution); • The results were processed and analyzed using Excel and Graphpad Prism to obtain the IC50. Table 4: Test Results of Cell Killing in HL-60 for 48 h

By IC50 is commonly meant the point on the concentration scale where inhibition reaches its midpoint. A high value points to weaker potency. Take `CC[C@H](C)[C@@H]([C@@H](CC(=O)N1CCC[C@H]1[C@H](OC)[C@@H](C)C(=O)N[C@H](C)[C@@H](O)c1ccccc1)OC)N(C)C(=O)[C@@H](NC(=O)[C@H](C(C)C)N(C)C(=O)OCc1ccc(NC(=O)[C@H](CCCNC(N)=O)NC(=O)[C@@H](NC(=O)CCCCCN2C(=O)CC(SC[C@H](NC(C)=O)C(=O)NCCOCCOCC(=O)N[C@@H](CCCNC(=N)N)C(=O)N[C@@H](CCCNC(=N)N)C(=O)N[C@@H](CC(C)C)C(=O)N[C@@H](Cc3ccccc3)C(=O)N[C@H]3CSSC[C@@H](C(=O)N[C@H](C(=O)N[C@@H](Cc4c[nH]c5ccccc45)C(=O)N[C@@H](CCCNC(=N)N)C(=O)N[C@@H](CC(=O)O)C(N)=O)[C@@H](C)O)NC(=O)[C@H]([C@@H](C)O)NC(=O)[C@H](CCCCN)NC(=O)[C@@H](Cc4c[nH]c5ccccc45)NC(=O)[C@H](Cc4ccc(O)cc4)NC3=O)C2=O)C(C)C)cc1)C(C)C` (single isomer, unassigned) [Example 10, Ac-Cys(MC-Val-Cit-PABC-MMAE)-AEEA-Arg-Arg-Leu-Phe-[Cys-Tyr-D-Trp-Lys-Thr-Cys]-Thr-Trp-Arg-Asp-NH2]: the “Bottom (Inhibition at Lowest Point)” value was -2.25, it took 187 nM to reach half-maximal inhibition (IC50) and the “Top (Inhibition at Highest Point)” value stood at 90.08.
